Assay results published in US20250026716A1, “SYNTHESIS PROCESS OF FATTY ACYL TAURINE SALT” (ZHANGJIAGANG GREAT CHEMICAL CO., LTD., priority 2021, published 2025).

Columns and labels:
[1] = tested on: chicken embryo chorioallantoic membrane; experiment: Irritancy (stimulus) test, chicken embryo chorioallantoic membrane method
[2] = Foaming performance test (foam volume, mixing method); assay type: physicochemical; conditions: 2 g of sample, 150 mg/kg hard water to 500 mL, stirring 30 s at 1000 rpm
Description: For further comparison, foaming performance tests are conducted on products of Examples 12-13 and Comparative Examples 16-17, and the test results are shown in Table 12.

| Foam volume [2] | Structure (SMILES) | Bleeding time [1] | IS value [1] |
| --- | --- | --- | --- |
|  | CCCCCCCCCCCC(=O)NCCS(=O)(=O)O.[Na] [Example 2, sodium lauroyl taurine] | 41.5 | 4.33 |
| 860 mL | CCCCCCCCCCCC(=O)NCCS(=O)(=O)O.[Na] [Comparative Example 16, sodium lauroyl taurine, reference compound] |  |  |
| 1240 mL | CCCCCCCCCCCC(=O)NCCS(=O)(=O)O.[Na] [Example 12, sodium lauroyl taurine] |  |  |
